#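 Values below derive from 48-hour exposures of cells grown in 96-well plates, with endpoints linearly interpolated between the two concentrations bracketing the appropriate inhibition level. TGI: concentration producing complete growth inhibition.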
# Key:
# Assay in all cases: DTP human tumour cell line panel, 48 h
# 786-0 renal = tested on: 786-0 renal
# A498 renal = tested on: A498 renal
# A549 NSCLC = tested on: A549 NSCLC
# ACHN renal = tested on: ACHN renal
# CAKI-1 renal = tested on: CAKI-1 renal
# CCRF-CEM leukemia = tested on: CCRF-CEM leukemia
# COLO 205 colon = tested on: COLO 205 colon
# DLD-1 colon = tested on: DLD-1 colon
# DMS 114 small cell lung = tested on: DMS 114 small cell lung
# HCC-2998 colon = tested on: HCC-2998 colon
# HCT-116 colon = tested on: HCT-116 colon
# HCT-15 colon = tested on: HCT-15 colon
# HL-60(TB) leukemia = tested on: HL-60(TB) leukemia
# HOP-18 NSCLC = tested on: HOP-18 NSCLC
# HOP-62 NSCLC = tested on: HOP-62 NSCLC
# HT29 colon = tested on: HT29 colon
# IGROV1 ovarian = tested on: IGROV1 ovarian
# K-562 leukemia = tested on: K-562 leukemia
# KM12 colon = tested on: KM12 colon
# KM20L2 colon = tested on: KM20L2 colon
# LOX IMVI melanoma = tested on: LOX IMVI melanoma
# M14 melanoma = tested on: M14 melanoma
# MALME-3M melanoma = tested on: MALME-3M melanoma
# MOLT-4 leukemia = tested on: MOLT-4 leukemia
# NCI-H226 lung = tested on: NCI-H226 lung
# NCI-H23 lung = tested on: NCI-H23 lung
# NCI-H460 lung = tested on: NCI-H460 lung
# NCI-H522 lung = tested on: NCI-H522 lung
# OVCAR-3 ovarian = tested on: OVCAR-3 ovarian
# OVCAR-4 ovarian = tested on: OVCAR-4 ovarian
# OVCAR-5 ovarian = tested on: OVCAR-5 ovarian
# OVCAR-8 ovarian = tested on: OVCAR-8 ovarian
# RPMI-8226 leukemia = tested on: RPMI-8226 leukemia
# RXF 393 renal = tested on: RXF 393 renal
# SF-268 CNS = tested on: SF-268 CNS
# SF-295 CNS = tested on: SF-295 CNS
# SF-539 CNS = tested on: SF-539 CNS
# SK-MEL-2 melanoma = tested on: SK-MEL-2 melanoma
# SK-MEL-28 melanoma = tested on: SK-MEL-28 melanoma
# SK-MEL-5 melanoma = tested on: SK-MEL-5 melanoma
# SK-OV-3 ovarian = tested on: SK-OV-3 ovarian
# SN12C renal = tested on: SN12C renal
# SNB-19 CNS = tested on: SNB-19 CNS
# SNB-75 CNS = tested on: SNB-75 CNS
# SNB-78 CNS = tested on: SNB-78 CNS
# SW-620 colon = tested on: SW-620 colon
# TK-10 renal = tested on: TK-10 renal
# U251 CNS = tested on: U251 CNS
# UACC-257 melanoma = tested on: UACC-257 melanoma
# UACC-62 melanoma = tested on: UACC-62 melanoma
# UO-31 renal = tested on: UO-31 renal
# DMS 273 small cell lung = tested on: DMS 273 small cell lung
# EKVX NSCLC = tested on: EKVX NSCLC
# M19-MEL melanoma = tested on: M19-MEL melanoma
# HOP-92 NSCLC = tested on: HOP-92 NSCLC
# LXFL 529 NSCLC = tested on: LXFL 529 NSCLC
# RXF-631 renal = tested on: RXF-631 renal
# SR leukemia = tested on: SR leukemia
# XF 498 CNS = tested on: XF 498 CNS
compound,measurement,setting,value
CC(=O)OC1c2ccccc2CCCCCCC12OCCO2 (stereo not given),TGI,786-0 renal,> 100 µM
same,TGI,A498 renal,> 100 µM
same,TGI,A549 NSCLC,> 100 µM
same,TGI,ACHN renal,> 100 µM
same,TGI,CAKI-1 renal,> 100 µM
same,TGI,CCRF-CEM leukemia,> 100 µM
same,TGI,COLO 205 colon,> 100 µM
same,TGI,DLD-1 colon,> 100 µM
same,TGI,DMS 114 small cell lung,> 100 µM
same,TGI,HCC-2998 colon,> 100 µM
same,TGI,HCT-116 colon,> 100 µM
same,TGI,HCT-15 colon,> 100 µM
same,TGI,HL-60(TB) leukemia,> 100 µM
same,TGI,HOP-18 NSCLC,> 100 µM
same,TGI,HOP-62 NSCLC,> 100 µM
same,TGI,HT29 colon,> 100 µM
same,TGI,IGROV1 ovarian,> 100 µM
same,TGI,K-562 leukemia,> 100 µM
same,TGI,KM12 colon,> 100 µM
same,TGI,KM20L2 colon,> 100 µM
same,TGI,LOX IMVI melanoma,> 100 µM
same,TGI,M14 melanoma,> 100 µM
same,TGI,MALME-3M melanoma,> 100 µM
same,TGI,MOLT-4 leukemia,> 100 µM
same,TGI,NCI-H226 lung,> 100 µM
same,TGI,NCI-H23 lung,> 100 µM
same,TGI,NCI-H460 lung,> 100 µM
same,TGI,NCI-H522 lung,> 100 µM
same,TGI,OVCAR-3 ovarian,> 100 µM
same,TGI,OVCAR-4 ovarian,> 100 µM
same,TGI,OVCAR-5 ovarian,> 100 µM
same,TGI,OVCAR-8 ovarian,> 100 µM
same,TGI,RPMI-8226 leukemia,> 100 µM
same,TGI,RXF 393 renal,> 100 µM
same,TGI,SF-268 CNS,> 100 µM
same,TGI,SF-295 CNS,> 100 µM
same,TGI,SF-539 CNS,> 100 µM
same,TGI,SK-MEL-2 melanoma,> 100 µM
same,TGI,SK-MEL-28 melanoma,> 100 µM
same,TGI,SK-MEL-5 melanoma,> 100 µM
same,TGI,SK-OV-3 ovarian,> 100 µM
same,TGI,SN12C renal,> 100 µM
same,TGI,SNB-19 CNS,> 100 µM
same,TGI,SNB-75 CNS,> 100 µM
same,TGI,SNB-78 CNS,> 100 µM
same,TGI,SW-620 colon,> 100 µM
same,TGI,TK-10 renal,> 100 µM
same,TGI,U251 CNS,> 100 µM
same,TGI,UACC-257 melanoma,> 100 µM
same,TGI,UACC-62 melanoma,> 100 µM
same,TGI,UO-31 renal,> 100 µM
COc1ccc2nc3cc(Cl)ccc3c(NCCCN(CCCl)CCCl)c2c1,TGI,A549 NSCLC,0.664 µM
same,TGI,CAKI-1 renal,0.123 µM
same,TGI,DLD-1 colon,> 100 µM
same,TGI,DMS 273 small cell lung,1.03 µM
same,TGI,EKVX NSCLC,0.539 µM
same,TGI,HCT-15 colon,1.13 µM
same,TGI,HL-60(TB) leukemia,0.0135 µM
same,TGI,HOP-18 NSCLC,9.4 µM
same,TGI,HT29 colon,0.333 µM
same,TGI,IGROV1 ovarian,0.479 µM
same,TGI,K-562 leukemia,0.154 µM
same,TGI,KM12 colon,0.395 µM
same,TGI,KM20L2 colon,> 100 µM
same,TGI,M19-MEL melanoma,0.846 µM
same,TGI,NCI-H226 lung,0.311 µM
same,TGI,NCI-H522 lung,0.163 µM
same,TGI,OVCAR-3 ovarian,0.295 µM
same,TGI,OVCAR-4 ovarian,0.232 µM
same,TGI,OVCAR-5 ovarian,0.31 µM
same,TGI,SF-268 CNS,0.3 µM
same,TGI,SF-295 CNS,0.505 µM
same,TGI,SK-MEL-2 melanoma,0.437 µM
same,TGI,SK-OV-3 ovarian,1.12 µM
same,TGI,SNB-75 CNS,0.407 µM
same,TGI,UACC-257 melanoma,> 100 µM
same,TGI,UO-31 renal,1.02 µM
COc1ccc(-c2cc(N3CCN(c4ccccc4)CC3)c(C#N)c(=O)o2)cc1,TGI,A498 renal,64.9 µM
same,TGI,A549 NSCLC,> 100 µM
same,TGI,ACHN renal,> 100 µM
same,TGI,CAKI-1 renal,53.9 µM
same,TGI,CCRF-CEM leukemia,> 100 µM
same,TGI,COLO 205 colon,> 100 µM
same,TGI,DLD-1 colon,> 100 µM
same,TGI,DMS 114 small cell lung,> 100 µM
same,TGI,DMS 273 small cell lung,> 100 µM
same,TGI,EKVX NSCLC,> 100 µM
same,TGI,HCC-2998 colon,> 100 µM
same,TGI,HCT-116 colon,> 100 µM
same,TGI,HCT-15 colon,> 100 µM
same,TGI,HL-60(TB) leukemia,> 100 µM
same,TGI,HOP-18 NSCLC,62.2 µM
same,TGI,HOP-92 NSCLC,> 100 µM
same,TGI,HT29 colon,> 100 µM
same,TGI,IGROV1 ovarian,> 100 µM
same,TGI,K-562 leukemia,> 100 µM
same,TGI,KM12 colon,> 100 µM
same,TGI,KM20L2 colon,> 100 µM
same,TGI,LOX IMVI melanoma,> 100 µM
same,TGI,LXFL 529 NSCLC,> 100 µM
same,TGI,M14 melanoma,> 100 µM
same,TGI,MALME-3M melanoma,53.7 µM
same,TGI,MOLT-4 leukemia,> 100 µM
same,TGI,NCI-H226 lung,9.94 µM
same,TGI,NCI-H23 lung,> 100 µM
same,TGI,NCI-H460 lung,> 100 µM
same,TGI,OVCAR-4 ovarian,15 µM
same,TGI,OVCAR-5 ovarian,> 100 µM
same,TGI,OVCAR-8 ovarian,> 100 µM
same,TGI,RPMI-8226 leukemia,> 100 µM
same,TGI,RXF 393 renal,38 µM
same,TGI,RXF-631 renal,> 100 µM
same,TGI,SF-268 CNS,49.3 µM
same,TGI,SF-295 CNS,59.5 µM
same,TGI,SF-539 CNS,41.5 µM
same,TGI,SK-MEL-2 melanoma,53.6 µM
same,TGI,SK-MEL-28 melanoma,77.6 µM
same,TGI,SK-MEL-5 melanoma,> 100 µM
same,TGI,SN12C renal,> 100 µM
same,TGI,SNB-19 CNS,49.8 µM
same,TGI,SNB-75 CNS,31.7 µM
same,TGI,SNB-78 CNS,59 µM
same,TGI,SR leukemia,> 100 µM
same,TGI,SW-620 colon,> 100 µM
same,TGI,TK-10 renal,58 µM
same,TGI,U251 CNS,> 100 µM
same,TGI,UACC-257 melanoma,> 100 µM
same,TGI,UO-31 renal,44.8 µM
same,TGI,XF 498 CNS,19.8 µM
CCCCCCCCCc1cc(=O)c2ccc(O)cc2o1,TGI,786-0 renal,> 100 µM
same,TGI,A549 NSCLC,> 100 µM
same,TGI,ACHN renal,> 100 µM
same,TGI,CAKI-1 renal,81.8 µM
same,TGI,CCRF-CEM leukemia,55.2 µM
same,TGI,COLO 205 colon,> 100 µM
same,TGI,DLD-1 colon,> 100 µM
same,TGI,DMS 114 small cell lung,> 100 µM
same,TGI,DMS 273 small cell lung,> 100 µM
same,TGI,EKVX NSCLC,> 100 µM
same,TGI,HCT-116 colon,> 100 µM
same,TGI,HL-60(TB) leukemia,38.2 µM
same,TGI,HOP-18 NSCLC,> 100 µM
same,TGI,HOP-62 NSCLC,> 100 µM
same,TGI,HOP-92 NSCLC,64.6 µM
same,TGI,HT29 colon,> 100 µM
same,TGI,IGROV1 ovarian,> 100 µM
same,TGI,K-562 leukemia,> 100 µM
same,TGI,KM12 colon,> 100 µM
same,TGI,KM20L2 colon,> 100 µM
same,TGI,LOX IMVI melanoma,> 100 µM
same,TGI,LXFL 529 NSCLC,> 100 µM
same,TGI,M14 melanoma,> 100 µM
same,TGI,M19-MEL melanoma,> 100 µM
same,TGI,MALME-3M melanoma,> 100 µM
same,TGI,MOLT-4 leukemia,> 100 µM
same,TGI,NCI-H226 lung,> 100 µM
same,TGI,NCI-H23 lung,> 100 µM
same,TGI,NCI-H460 lung,> 100 µM
same,TGI,NCI-H522 lung,> 100 µM
same,TGI,OVCAR-3 ovarian,> 100 µM
same,TGI,OVCAR-4 ovarian,> 100 µM
same,TGI,OVCAR-5 ovarian,> 100 µM
same,TGI,OVCAR-8 ovarian,> 100 µM
same,TGI,RPMI-8226 leukemia,> 100 µM
same,TGI,RXF 393 renal,> 100 µM
same,TGI,RXF-631 renal,> 100 µM
same,TGI,SF-268 CNS,> 100 µM
same,TGI,SF-295 CNS,> 100 µM
same,TGI,SF-539 CNS,> 100 µM
same,TGI,SK-MEL-2 melanoma,> 100 µM
same,TGI,SK-MEL-28 melanoma,> 100 µM
same,TGI,SK-MEL-5 melanoma,> 100 µM
same,TGI,SK-OV-3 ovarian,> 100 µM
same,TGI,SN12C renal,> 100 µM
same,TGI,SNB-19 CNS,> 100 µM
same,TGI,SNB-75 CNS,56.4 µM
same,TGI,SNB-78 CNS,> 100 µM
same,TGI,SR leukemia,> 100 µM
same,TGI,SW-620 colon,> 100 µM
same,TGI,TK-10 renal,91.3 µM
same,TGI,U251 CNS,> 100 µM
same,TGI,UACC-257 melanoma,> 100 µM
same,TGI,UACC-62 melanoma,> 100 µM
same,TGI,UO-31 renal,> 100 µM
same,TGI,XF 498 CNS,> 100 µM

# — PubChem BioAssay (NCI)
